# Test results as given in PMC12257073 (Cancer Research Communications, 2025).
# System: TP53
# Experiment: TP53 variant allele frequency by serial targeted next-generation sequencing
# Format: in vivo, human
# Method: Mutations in germline and serial bone marrow or blood samples were determined by targeted next-generation sequencing (NGS). NGS aligned read files are available in the NCBI’s Sequence Read Archive under accession PRJNA1236309. See Supplementary Methods for details.
# Genomic DNA was isolated from cryopreserved cells with QIAmp DNA Mini Kit (Qiagen) and fragmented using ME220 Focused-ultrasonicator (Covaris; SCR_019818). Libraries were generated using xGen™ DNA Lib Prep MC UNI kit and target capture was done using xGen AML Cancer Hybridization Panel in conjunction with a 3 gene spike-in pool for ZRSR2, AXL, and ASXL2 (Integrated DNA Technologies). DNA library preparations were performed according to the manufacturer’s instructions and sequenced on an Illumina Novaseq (OSUCCC Genomics Shared Resource) (SCR_016387). Sequenced reads were aligned to the GRCh38 genome build using the Burrows-Wheeler Aligner (BWA) (SCR_010910). Picard Tools was used to perform UMI-consensus calling on the aligned reads. The Genome Analysis Toolkit (GATK) (SCR_001876) was used to realign insertions and deletions in the aligned reads and to perform base quality score recalibration for those realigned regions. GATK’s MuTect2 (SCR_026692) was used to perform variant calling. After variant calling, variants were annotated using SnpEff (SCR_005191) and vcfanno (SCR_024372) along with the dbsnp (SCR_002338), COSMIC (SCR_002260), and gnomad variant databases (SCR_014964). The Mucor3 algorithm was used as the baseline for integrative mutation assessment. Visual inspection of all variants was carried out using Integrative Genomics Viewer v.2.8 (Broad Institute).
smiles,measurement,setting,value
"CN1CCN(Cc2ccc(Nc3ncc(Cl)c(Nc4ccccc4S(=O)(=O)N(C)C)n3)cc2)CC1.O=C(O)C(O)C(O)C(=O)O.O=C(O)C(O)C(O)C(=O)O [TP-0903, 2-(5-chloro-2-(4-((4-methylpiperazin-1-yl)methyl)phenylamino)pyrimidin-4-yl)amino-N,N-dimethylbenzene-1-sulfonamide di-tartrate salt]",Change in TP53 VAF,"patients who achieved CR, n = 5, P < 0.01",significantly decreased
same,Change in TP53 VAF,"patients who achieved CRh/CRi/MLFS, n = 7, P < 0.01",significantly decreased
same,Change in TP53 VAF,"patients who had SD, treatment failure, or early death, n = 3",not significantly changed
